Laboratory results taken from article PMC3648997 (Bioorganic & medicinal chemistry letters, 2013).

Legend:
[1] = Stability over 24 h; conditions: over a period of 24 h
[2] = Glutathione reactivity; conditions: 50 μM glutathione, over 48 h
[3] = target: Keap1 Kelch domain (Homo sapiens, UniProt Q14145); assay: SPR solution competition assay; format: binding
Keap1 Kelch domain, sequence (Q14145 321-609 limits assumed): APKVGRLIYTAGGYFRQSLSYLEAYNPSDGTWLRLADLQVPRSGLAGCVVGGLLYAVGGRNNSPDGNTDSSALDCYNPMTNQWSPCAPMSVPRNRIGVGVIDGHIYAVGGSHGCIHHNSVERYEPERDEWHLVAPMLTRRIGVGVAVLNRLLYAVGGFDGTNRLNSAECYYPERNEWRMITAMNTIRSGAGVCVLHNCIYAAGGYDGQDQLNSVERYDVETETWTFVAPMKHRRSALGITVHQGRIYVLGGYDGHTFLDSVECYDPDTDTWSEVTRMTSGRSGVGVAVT

O=C(O)[C@H]1CCCC[C@H]1C(=O)N1CCc2ccccc2[C@H]1CN1C(=O)c2ccccc2C1=O [(SRS)-5]
stability [1]: highly stable
thiol addition or decomposition [2]: No thiol addition or decomposition could be detected

NC(=O)C1CCCCC1C(=O)N1CCc2ccccc2C1CN1C(=O)c2ccccc2C1=O (centres unmarked) [corresponding amide]
fold less active than (SRS)-5 ([3]; relative to (SRS)-5): about 20 fold

COC(=O)C1CCCCC1C(=O)N1CCc2ccccc2C1CN1C(=O)c2ccccc2C1=O (centres unmarked) [corresponding methyl ester]
Keap1 binding activity (in words) [3]: completely inactive

O=C(O)C1CCCCC1C(=O)N1CCc2ccccc2C1CN1Cc2ccccc2C1=O (centres unmarked) [lactam]
Keap1 binding activity (in words) [3]: only slight decrease in Keap1 binding
